From patent US20120022070A1, “Heat Shock Protein 90 Inhibitors, Methods Of Preparing Same, And Methods For Their Use” (EMORY UNIVERSITY, priority 2008, published 2012)
Read-outs that look alike come from different tables or passages of the source.

Key:
[1] = tested on: tumor specific Hsp90 (NCI-N417 cell lysate); assay: Hsp90 binding FP competition assay; set-up: species or system human
Text: There are several assays that have been developed to identify novel Hsp90 inhibitors based on the interaction of small molecules with recombinant Hsp90 protein, either yeast or human. To measure a therapeutically significant state of Hsp90, an FP assay that uses human cancer cell lysates instead of recombinant protein (Du, Moulick et al. J. Biomol. Screen, 2007, 12, 915-24) was utilized. It probes the interaction of small molecules with tumor-specific Hsp90 and may therefore lead to inhibitors that are not only selective for cancer cells but also specific for a particular malignancy.
The dose-response effect of the compounds was tested in Hsp90 binding FP competition assays to obtain the IC50 of the compounds. The Hsp90 FP competition assay was performed in 384-well black plate using the small-cell lung carcinoma (SCLC) cell line NCI-N417 as a source of tumor specific Hsp90 and the Cy3B-labeled geldanamycin (GM-cy3B) as the FP ligand. The compound was dissolved in DMSO and added at several concentrations to the reaction buffer containing both GM-cy3B (5 nM) and NCI-N417 cell lysate (1 μg/well) in a final volume of 50 μL. Free GM-cy3B (5 nM) and bound GM-cy3B with NCI-N417 cell lysate (5 nM GM-cy3B and 1 μg/well of NCI-N417 cell lysate) were included as controls in each plate. After incubating at room temperature for 2 to 16 hours, the polarization values were measured and expressed as millipolarization (mP) units using Analyst HT plate reader (Molecular Devices). The competitive efficiency of the compounds were expressed as a percentage of control and calculated according to the following equation:
% of control=((mPc−mPf)/(mPb−mPf))×100
where mPc is the recorded mP from compound wells, mPf is the average recorded mP from GM-cy3B-only wells, and mPb is the average recorded mP from wells containing both GM-cy3B and NCI-N417 lysate. IC50 values were determined using a nonlinear regression analysis as implemented in Prism 4.0 (Graphpad Software).

[2] = tested on: Her2 protein in MCF-7 breast cancer cells; assay: Cell-based Her2 degradation assay by Western Blot; conditions: Homo sapiens
Text: Addition of Hsp90 inhibitors to cancer cells induces the proteasomal degradation of a subset of proteins involved in signal transduction such as Raf1 kinase, Akt and certain transmembrane tyrosine kinases such as Her2. Thus, Her2 degradation in cells is a functional read-out of Hsp90 inhibition. Correlation between Hsp90 binding and Her2 degradation in cancer cells is indicative of a selective biological effect in these cells via Hsp90.
A Western blot-based assay was used to measure the cellular level of Her2 protein in MCF-7 breast cancer cell lysates collected after 24 hours of compound treatment. […] Then 2×10^5 cells were seeded in 24 well plates in 500 μl PRMI1640 medium and allowed to attach overnight. The compounds were dissolved in DMSO, added to the wells, and incubated for 24 hours. The cells were washed using ice-cold phosphate-buffered saline (PBS) and lysed in 1% NP40 lysis buffer (10 mM HEPES, pH 7.4, 150 mM NaCl, 1% Nonident P-40, 5 mM Pyrophosphate, 5 mM NaF, 2 mM Orthovanadate, 10 ug/ml Aprotinin, 10 ug/ml Leupeptin, 1 mM PMSF). After boiling with 6×SDS sample buffer, the cell lysates were separated by SDS-PAGE and transferred to nitrocellulose membrane. The membranes were blocked with 5% milk in tris-buffered saline buffer.

[3] = tested on: SKBR3 breast cancer cells; assay: Cancer cell growth inhibition assay (CellTiter-Blue); type: cell-based; conditions: Homo sapiens, SK-BR-3, Table 2, 96 hours
Protocol: The effects of the compounds on cancer cell growth were determined using the CellTiter-Blue cell viability assay (Promega). CellTiter-Blue® Cell Viability is based on the ability of living cells to convert a redox dye (resazurin) into a fluorescent end product (resorufin).
The SKBR3 breast cancer cells were plated in 384-well microtiter plates (Costar) and allowed to attach overnight. After treatment with either compounds or vehicle (DMSO) for 96 hours, the cells were measured for their viability by CellTiter-Blue. Briefly, 10 μl of CelTiter-Blue were added to each well in 384-well plates and incubated at 37° C. for 4 hours. The fluorescence intensity (FI) was measured using the Analyst HT plate reader (Molecular Devices) with an excitation at 545 nm and emission at 595 nm. The IC50 was calculated as the compound concentration that inhibits cell viability by 50% compared with vehicle control wells. The IC50 values were determined as described above.

[4] = tested on: Her2 protein in SKBr3 breast cancer cells; assay: Cell-based Her2 degradation assay by Cytoblot; conditions: Homo sapiens, SK-BR-3, Table 2, values with asterisk, 24 hours
Protocol: Cellular Her2 level after compound treatment was also monitored by microtiter-based Her2 degradation assay, Cytoblot assay (Huezo, Vilenchik et al. Chem. Biol., 2003, 10, 629-634). This is a cell-based assay that enables the quantitative analysis of intracellular levels of Her2 protein.
The human breast cancer cell lines SKBr3 were maintained in RPMI1640 medium supplemented with 10% FBS. 3000 cells in 100 μl of growth medium were plated per well in black, clear-bottom microtiter plates (Corning) and allowed to attach for at least 24 hours at 37° C. and 5% CO2. Compounds at different doses or vehicle (DMSO) were carefully added to the wells and incubated for 24 hours. The cells were washed twice with ice-cold Tris buffer saline (TBS) containing 0.1% Tween 20 (TBST) and fixed with ice-cold methanol. After washing with TBST, the plate was incubated at RT for 1 hour with SuperBlock (Pierce 37535) and overnight at 4° C. with the anti-Her-2 antibody (Santa Cruz Biotechnology). The plate was then washed with TBST and incubated at RT for 2 hours with an anti-rabbit HRP-linked antibody (Sigma A0545). The chemiluminescent substrate solution (Pierce 38040) was added and the plate was read 5 minutes later in an Analyst HT plate reader (Molecular Devices). Luminescence readings resulting from compound-treated cells versus untreated cells (vehicle treated) were quantified and plotted against compound concentrations to give the IC50 values (defined as concentration of compound required to degrade 50% of total Her2).

[5] = MCF7, 24 h, read-out: Her2 degradation WB IC50
[6] = MCF7, Table 1, MCF-7 cells, 24 hours of compound treatment, read-out: Her2 degradation WB IC50

Row | Structure (SMILES) | IC50 ([1]; Table 1, GM-cy3B 5 nM) [µM] | IC50 [2, 6] [µM] | IC50 [2, 5] [µM] | also measured
1 | Cc1ccc(NC2=CC(=O)C(=O)c3ccccc32)cc1 [Compound 15] | 0.96 |  | ~10 | 
2 | Cc1cccc(NC2=CC(=O)C(=O)c3ccccc32)c1 [Compound 41] | 1.06 |  | ≥ 10 | 
3 | O=C1C=C(Nc2ccc(Br)cc2)c2ccccc2C1=O [Compound 36] | 1.4 |  | ~30 | 
4 | Cc1ccc(NC2=CC(=O)C(=O)c3ccccc32)c(C(=O)O)c1 [Compound 68] |  |  |  | IC50 [3]: > 20 µM; IC50 ([2]; MCF7, Table 2, values without asterisk, MCF-7 cells, 24 hours, read-out: IC50, Her2 degradation WB): > 30 µM
5 | O=C1C=C(Nc2ccccc2C(=O)CC(=O)C(=O)Nc2ccc(Cl)c(Cl)c2)c2ccccc2C1=O [Compound 40] | 10.5 | > 30 |  | 
6 | NC(=O)C(=O)CC(=O)c1ccccc1NC1=CC(=O)C(=O)c2ccccc21 [Compound 39] | 4.2 | > 30 |  | 
7 | O=C1C=C(N2CCN(S(=O)(=O)c3cc(Cl)cc(Cl)c3O)CC2)c2ccccc2C1=O [Compound 63] |  |  |  | IC50 [3]: > 20 µM; IC50 ([1]; Table 2, GM-cy3B 5 nM): 1.31 µM; IC50 [4]: 26.1 µM
8 | Cc1ccc(C)c(NC2=CC(=O)C(=O)c3ccccc32)c1 [Compound 25] | 1.59 |  | > 30 | 
9 | O=C1C=C(N2CCN(c3cccc4ccccc34)CC2)c2ccccc2C1=O [Compound 57] |  |  |  | IC50 [3]: 0.22 µM; IC50 ([1]; Table 2, GM-cy3B 5 nM): 0.89 µM; IC50 [4]: 3.9 µM
10 | CCc1cccc(CC)c1NC1=CC(=O)C(=O)c2ccccc21 [Compound 34] | 3.55 |  | > 30 | 
11 | O=C1C=C(Nc2ccc(Cl)cc2Cl)c2ccccc2C1=O [Compound 37] | 4.7 |  | ~30 | 
12 | Cc1ccc(NC2=CC(=O)C(=O)c3ccccc32)c(C)c1 [Compound 13] | 1.85 |  | < 5 | 
13 | CCN(CC)C1=CC(=O)C(=O)c2ccccc21 [Compound 48] | 0.69 |  | 5 to 10 | 
14 | O=C1C=C(Nc2ccc(O)cc2)c2ccccc2C1=O [Compound 43] | < 0.39 |  | ~10 | 
15 | O=C1C=C(Nc2cccc(Cl)c2)c2ccccc2C1=O [Compound 28] |  |  | > 30 | 
16 | O=C1C=C(Nc2ccccc2)c2ncccc2C1=O [Compound 1] |  | ~2.5 |  | 
17 | O=C1C(=O)c2cccnc2C(NCc2ccccc2)=C1Cl [Compound 3] |  | ~2.5 |  | 
18 | Cc1cccc(C)c1NC1=CC(=O)C(=O)c2ccccc21 [Compound 26] | 3.9 |  | > 10 | 
19 | CCN(CC)C1=C(Cl)C(=O)C(=O)c2cccnc21 [Compound 6] |  | > 20 |  | 
20 | CN(C)C1=C(Cl)C(=O)C(=O)c2cccnc21 [Compound 5] |  | > 20 |  | 
21 | NC1=CC(=O)C(=O)c2cccnc21 [Compound 4] |  | > 20 |  | 
22 | CN(C1=CC(=O)C(=O)c2ccccc21)c1ccccc1 [Compound 18] | 0.39 |  | ~10 | 
23 | CCCCCCN(CCCCCC)C1=CC(=O)C(=O)c2ccccc21 [Compound 38] | 2.6 | ~30 |  | 
24 | CC(C)c1cccc(C(C)C)c1NC1=CC(=O)C(=O)c2ccccc21 [Compound 44] | 1.73 | > 30 |  | 
25 | O=C1C=C(Nc2ccc(Cl)cc2)c2ccccc2C1=O [Compound 19] | 0.68 |  | < 10 | 
26 | O=C1C=C(Nc2ccccc2)c2ccccc2C1=O [Compound 32] | 7.4 |  | < 30 | 
27 | O=C1C=C(N2CCOCC2)c2ccccc2C1=O [Compound 23] | 0.63 |  | ~10 | 
28 | O=C1C(=O)c2cccnc2C(NC2CC3CCC2C3)=C1Cl (stereo not shown) [Compound 2] |  | ~2.5 |  | 

Second part, led by results:

Row | IC50 ([1]; Table 1, GM-cy3B 5 nM) [µM] | IC50 [2, 6] [µM] | Structure (SMILES) | IC50 [2, 5] [µM] | also measured
29 | 2.18 | 10 to 30 | NC1=CC(=O)C(=O)c2ccccc21 [Compound 31] |  | 
30 | 0.6 | ~10 | O=C1C=C(Nc2cccc(O)c2)c2ccccc2C1=O [Compound 20] |  | 
31 | 0.45 | 1 to 10 | O=C1C=C(Nc2ncccn2)c2ccccc2C1=O [Compound 14] |  | 
32 |  | 2.5 to 5 | CC(N)CCCNC1=CC(=O)C(=O)c2cccnc21 (stereo not shown) [Compound 11] |  | 
33 | 0.22 | 5 to 10 | CC(C)(C)OC(=O)N1CCN(C2=CC(=O)C(=O)c3ccccc32)CC1 [Compound 46] |  | 
34 | 3.06 | > 30 | O=C1C=C(Nc2cc(Cl)ccc2Cl)c2ccccc2C1=O [Compound 33] |  | 
35 | 2.19 | ~10 | C=CCN(CC=C)C1=CC(=O)C(=O)c2ccccc21 [Compound 24] |  | 
36 | 0.67 | ~10 | O=C1C=C(Nc2cccnc2)c2ccccc2C1=O [Compound 16] |  | 
37 | 0.81 | ~10 | COc1cccc(NC2=CC(=O)C(=O)c3ccccc32)c1 [Compound 42] |  | 
38 | < 0.39 | ~10 | Cc1ccnc(NC2=CC(=O)C(=O)c3ccccc32)c1 [Compound 12] |  | 
39 | 4 | ~10 | O=C1C=C(NCCc2ccccc2)c2ccccc2C1=O [Compound 17] |  | 
40 |  | > 30 | O=C1C=C(NCCCCC2CCCCC2)c2ccccc2C1=O [Compound 22] |  | FP Assay IC50 ([1]; Table 1, GM-cy3B 5 nM): inactive
41 | 1 | ~10 | CCOc1ccc(NC2=CC(=O)C(=O)c3ccccc32)cc1 [Compound 21] |  | 
42 | 0.39 | 5 to 10 | CN1CCN(C2=CC(=O)C(=O)c3ccccc32)CC1 [Compound 47] |  | 
43 | 1.07 | < 10 | Cc1ccc(NC2=CC(=O)C(=O)c3ccccc32)cc1C [Compound 29] |  | 
44 | 3 | > 30 | Cc1cc(Br)ccc1NC1=CC(=O)C(=O)c2ccccc21 [Compound 35] |  | 
45 |  | ~10 | N#CCCCCNC1=CC(=O)C(=O)c2cccnc21 [Compound 10] |  | 
46 | 0.23 | > 10 | COc1ccc(NC2=CC(=O)C(=O)c3ccccc32)c([N+](=O)[O-])c1 [Compound 52] |  | 
47 | 1.33 | > 30 | O=C1C=C(Nc2cccc(C(=O)O)c2)c2ccccc2C1=O [Compound 30] |  | 
48 |  | > 30 | O=C1C=C(Nc2cccc(Br)c2)c2ccccc2C1=O [Compound 27] |  | 
